The structures appear in SMILES notation. Counter-ions that a name gives are not always drawn.

By melting point is commonly meant the temperature of the solid-liquid transition.

On to `C[C@@H]1CCCN1CCc1ccc2cc(Br)ccc2c1` (as salt: HCl) [Example 2, (2R)-1-[2-(6-bromo-2-naphthyl)ethyl]-2-methylpyrrolidine], for which the melting point fell in the range of 247.3 to 250.7 °C.

`C[C@@H]1CCCN1CCc1ccc2cc(C#N)ccc2c1` (as salt: hydrochloride) [Example 5, 6-{2-[(2R)-2-methyl-1-pyrrolidinyl]ethyl}-2-naphthonitrile] had a melting point of 187.4 to 188.6 °C.

In turn, `C[C@@H]1CCCN1Cc1ccc2cc(-c3ccc(C#N)cc3)ccc2c1` (as salt: hydrochloride) [Example 6, 4-(6-{[(2R)-2-methyl-1-pyrrolidinyl]methyl}-2-naphthyl)benzonitrile] returned a melting point of 212.6 to 213.6 °C.

`C[C@@H]1CCCN1CCc1ccc2cc(-c3ccc(F)cc3)ccc2n1` (as salt: hydrochloride) [Example 43, 6-(4-fluorophenyl)-2-{2-[(2R)-2-methyl-1-pyrrolidinyl]ethyl}quinoline] registered a melting point of 145 °C.

Molecule `CC(=O)c1cccc(-c2ccc3nc(CCN4CCC[C@H]4C)ccc3c2)c1` (as salt: hydrochloride) [Example 45, 1-[3-(2-{2-[(2R)-2-methyl-1-pyrrolidinyl]ethyl}-6-quinolinyl)phenyl]ethanone] returned a melting point of 174 to 175 °C.

Turning to `COc1ccc(-c2ccc3nc(CCN4CCC[C@H]4C)ccc3c2)cc1` (as salt: hydrochloride) [Example 46, 6-(4-methoxyphenyl)-2-{2-[(2R)-2-methyl-1-pyrrolidinyl]ethyl}quinoline], the melting point is 165 °C (dec.).

As for `C[C@@H]1CCCN1CCc1ccc2cc(-c3ccc(C(F)(F)F)cc3)ccc2n1` (as salt: hydrochloride) [Example 47, 2-{2-[(2R)-2-methyl-1-pyrrolidinyl]ethyl}-6-[4-(trifluoromethyl)phenyl]quinoline], the melting point was 143 to 145 °C (dec.).

In turn, `C[C@@H]1CCCN1CCc1ccc2cc(-c3cc(F)cc(F)c3)ccc2n1` (as salt: hydrochloride) [Example 49, 6-(3,5-difluorophenyl)-2-{2-[(2R)-2-methyl-1-pyrrolidinyl]ethyl}quinoline] yielded a melting point of 164 to 165 °C.

Turning to `C[C@@H]1CCCN1CCc1ccc2cc(C(=O)c3cccc(F)c3)ccc2n1` (as salt: hydrochloride) [Example 50, (3-fluorophenyl)(2-{2-[(2R)-2-methyl-1-pyrrolidinyl]ethyl}-6-quinolinyl)methanone], the melting point was 162 to 164 °C (dec.).

The molecule `C[C@@H]1CCCN1CCc1ccc2cc(-c3cccnc3)ccc2n1` (as salt: hydrochloride) [Example 51, 2-{2-[(2R)-2-methyl-1-pyrrolidinyl]ethyl}-6-(3-pyridinyl)quinoline] displayed a melting point of 205 to 207 °C.

Molecule `C[C@@H]1CCCN1CCc1ccc2cc(-c3ccncc3)ccc2n1` (as salt: hydrochloride) [Example 107, 2-[2-(2R-Methyl-pyrrolidin-1-yl)-ethyl]-6-pyridin-4-yl-quinoline] returned a melting point of 145 to 147 °C.

`C[C@@H]1CCCN1CCc1ccc2cc(-c3ccc(Cl)nc3Cl)ccc2n1` (as salt: hydrochloride) [Example 111, 6-(2,6-Dichloro-pyridin-3-yl)-2-[2-(2(R)-methyl-pyrrolidin-1-yl)-ethyl]-quinoline] displayed a melting point of 105 to 107 °C.

Molecule `C[C@@H]1CCCN1CCc1ccc2cc(-c3cncnc3)ccc2n1` (as salt: hydrochloride) [Example 113, 2-[2-(2(R)-Methyl-pyrrolidin-1-yl)-ethyl]-6-pyrimidin-5-yl-quinoline] registered a melting point of 160 to 162 °C.

Take `C[C@@H]1CCCN1CCc1ccc2cc(-c3ccc(Cl)cc3)ccc2n1` (as salt: hydrochloride) [Example 117, 6-(4-Chloro-phenyl)-2-[2-(2(R)-methyl-pyrrolidin-1-yl)-ethyl]-quinoline]: the melting point is 154 to 155 °C.

`Cc1ccc(-c2ccc3nc(CCN4CCC[C@H]4C)ccc3c2)c(C)n1` (as salt: hydrochloride) [Example 118, 6-(2,6-Dimethyl-pyridin-3-yl)-2-[2-(2(R)-methyl-pyrrolidin-1-yl)-ethyl]-quinoline] showed a melting point of 176 to 177 °C.

The molecule `Cc1noc(C)c1-c1ccc2nc(CCN3CCC[C@H]3C)ccc2c1` (as salt: hydrochloride) [Example 120, 6-(3,5-Dimethyl-isoxazol-4-yl)-2-[2-(2(R)-methyl-pyrrolidin-1-yl)-ethyl]-quinoline] gave a melting point of 174 to 175 °C.

Molecule `COC(=O)c1ccc(-c2ccc3nc(CCN4CCC[C@H]4C)ccc3c2)cc1` (as salt: hydrochloride) [Example 121, 4-{2-[2-(2(R)-Methyl-pyrrolidin-1-yl)-ethyl]-quinolin-6-yl}-benzoic acid methyl ester] yielded a melting point of 172 to 174 °C.

As to `CSc1ccc(-c2ccc3nc(CCN4CCC[C@H]4C)ccc3c2)cc1` (as salt: hydrochloride) [Example 122, 2-[2-(2(R)-Methyl-pyrrolidin-1-yl)-ethyl]-6-(4-methylsulfanyl-phenyl)-quinoline], the melting point was 158 to 159 °C.

Regarding `C[C@@H]1CCCN1CCc1ccc2cc(-c3ccc(F)nc3)ccc2n1` (as salt: hydrochloride) [Example 123, 6-(6-Fluoro-pyridin-3-yl)-2-[2-(2(R)-methyl-pyrrolidin-1-yl)-ethyl]-quinoline], the melting point is 162 to 163 °C.

As for `C[C@@H]1CCCN1CCc1ccc2cc(-c3ccc(C#N)cc3)ccc2c1` (as salt: tartrate) [Example 1, 4-(6-{2-[(2R)-2-methyl-1-pyrrolidinyl]ethyl}-2-naphthyl)benzonitrile], the melting point was 157.4 to 158.1 °C.

For `C[C@@H]1CCCN1CCc1ccc2cc(-c3ccc(C#N)cc3)ccc2n1` (as salt: tartrate) [Example 42, 4-(2-{2-[(2R)-2-methyl-1-pyrrolidinyl]ethyl}-6-quinolinyl)benzonitrile], the melting point was 164 °C.

As for `C[C@@H]1CCCN1CCc1ccc2cc(-c3cccc(C#N)c3)ccc2n1` (as salt: tartrate) [Example 44, 3-(2-{2-[(2R)-2-methyl-1-pyrrolidinyl]ethyl}-6-quinolinyl)benzonitrile], the melting point was determined as 172 °C.

`COc1ccc(-c2ccc3nc(CCN4CCC[C@H]4C)ccc3c2)cn1` (as salt: tartrate) [Example 108, 6-(6-Methoxy-pyridin-3-yl)-2-[2(R)-(2-methyl-pyrrolidin-1-yl)-ethyl]-quinoline] gave a melting point of 132 to 134 °C.

Regarding `C[C@@H]1CCCN1CCc1ccc2cc(-c3ccc(F)nc3F)ccc2n1` (as salt: tartrate) [Example 109, 6-(2,6-Difluoro-pyridin-3-yl)-2-[2-(2R-methyl-pyrrolidin-1-yl)-ethyl]-quinoline], the melting point lay in the range of 142 to 143 °C.

Molecule `C[C@@H]1CCCN1CCc1ccc2cc(-c3ccc(Cl)nc3)ccc2n1` (as salt: tartrate) [Example 110, 6-(6-Chloro-pyridin-3-yl)-2-[2-(2(R)-methyl-pyrrolidin-1-yl)-ethyl]-quinoline] displayed a melting point of 167 to 168 °C.

The molecule `C[C@@H]1CCCN1CCc1ccc2cc(-c3ccc(N(C)C)cc3)ccc2n1` (as salt: tartrate) [Example 115, Dimethyl-(4-{2-[2-(2(R)-methyl-pyrrolidin-1-yl)-ethyl]-quinolin-6-yl}-phenyl)-amine] registered a melting point of 155 to 156 °C.

In turn, `CC(=O)c1ccc(-c2ccc3nc(CCN4CCC[C@H]4C)ccc3c2)cc1` (as salt: tartrate) [Example 116, 1-(4-{2-[2-(2(R)-Methyl-pyrrolidin-1-yl)-ethyl]-quinolin-6-yl}-phenyl)-ethanone] returned a melting point of 152 to 154 °C.

With `C[C@@H]1CCCN1CCc1ccc2cc(-c3cncc(C#N)c3)ccc2n1` (as salt: tartrate) [Example 124, 5-{2-[2-(2(R)-Methyl-pyrrolidin-1-yl)-ethyl]-quinolin-6-yl}-nicotinonitrile], the melting point fell in the range of 100 to 102 °C.

For `C[C@@H]1CCCN1CCc1ccc2cc(-c3cccc(C#N)c3)ccc2c1` [Example 7, 3-(6-{2-[(2R)-2-methyl-1-pyrrolidinyl]ethyl}-2-naphthyl)benzonitrile], the melting point lay in the range of 228.5 to 231.6 °C.

(Values after patent US8273767B2, “Bicyclic-substituted amines as histamine-3 receptor ligands” (Abbott Laboratories, priority 2002, dated 2012).)
